The values below come from patent US11535670B2, “Combination therapies of HDAC inhibitors and PD-L1 inhibitors” (HUYABIO International, LLC, priority 2016, dated 2022).

One assay addresses T1, HDAC 11 (Homo sapiens, UniProt Q96DB2).
T1 sequence (Q96DB2 1-347): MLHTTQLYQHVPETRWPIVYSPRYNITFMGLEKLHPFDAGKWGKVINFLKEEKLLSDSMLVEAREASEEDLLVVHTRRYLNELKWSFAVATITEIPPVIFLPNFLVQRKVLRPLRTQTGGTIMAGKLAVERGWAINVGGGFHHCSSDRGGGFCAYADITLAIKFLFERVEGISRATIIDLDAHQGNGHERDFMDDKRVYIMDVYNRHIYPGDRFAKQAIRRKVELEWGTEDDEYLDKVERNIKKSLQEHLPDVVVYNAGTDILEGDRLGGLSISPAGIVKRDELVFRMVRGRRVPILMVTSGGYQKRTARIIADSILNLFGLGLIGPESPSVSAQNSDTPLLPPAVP
The following applies: cited from earlier work.

The test system of assay [1] is MC38 murine colon carcinoma. As to the kind of experiment: Example 3: second-line therapy of MC38 tumors progressing after first-line PD-1 inhibitor antibody, response rates. Format: in vivo, C57BL/6 mice. Conditions: second-line after failing PD-1 inhibitor antibody; HBI-8000 50 mg/kg p.o. qd×21; antibodies 5 mg/kg i.p. biwk×2 (Table 4: biwk × 3). An excerpt: In this model, a proportion of the animals treated 1st line with the PD-1 checkpoint inhibitor antibody experience complete tumor regression. However, a similar proportion of animals treated 1st line with the PD-1 inhibitor antibody experience rapid tumor progression. The balance of the animals treated in this way experience slow tumor progression or stable disease, which is a result which approximates the situation in a number of human cancer patients receiving PD-1 inhibitor antibody therapy, i.e., they experience a transient partial response, including stable disease, but then develop resistance and rapidly progress, failing PD-1 inhibitor antibody therapy. In this example, the efficacy of HBI-8000 (DZ1) as a second-line therapy, alone and in combination with PDL-1 inhibitor antibody 10F.9G2 (anti-PDL-1), was evaluated for the ability to cause tumor growth delay (TGD) in animals which tumors progressed following PD-1 inhibitor antibody first line of therapy in the MC38 murine colon carcinoma syngeneic model in immunocompetent C57BL/6 mice.
Female C57BL/6 mice bearing subcutaneous MC38 tumors (mean tumor volume: 114 mm^3 when treatment began) were treated with a first line of therapy of PD-1 inhibitor antibody treatment, administered intraperitoneally (i.p.) at 5 mg/kg, twice weekly for two weeks (biwk×2). […] Dosing began on Dl, which represented the day of recruitment and varied among mice (this was normalized for each group). The second line therapies were as follows. Vehicle was administered orally (p.o.). HBI-8000 was administered p.o. at 50 mg/kg. PD-1 inhibitor antibody and anti-PDL-1 were each administered intraperitoneally (i.p) at 5 mg/kg. Group 1 mice served as controls and received 0.2% carboxymethyl cellulose: 0.1% Tween 80 in deionized water (vehicle) once daily for twenty-one days (qd×21). Group 2 received HBI-8000 qd×21. Group 3 received a second course of PD-1 inhibitor antibody biwk×2. Group 4 received HBI-8000 qd×21 and PD-1 inhibitor antibody biwk×2. Group 5 received anti-PDL-1 biwk×2. Group 6 received HBI-8000 qd×21 and anti-PDL-1 biwk×2. […]

As for `Nc1cc(F)ccc1NC(=O)c1ccc(CNC(=O)/C=C/c2cccnc2)cc1` [HBI-8000, N-(2-amino-4-fluorophenyl)-4-[[[(2E)-1-oxo-3-(3-pyridinyl)-2-propen-1-yl]amino]methyl]benzamide], the “activity at HDAC 11” value at HDAC 11 is listed as “has activity”. Also, the “activity at HDAC 11 compared with Entinostat” value at HDAC 11 (versus Entinostat) is on record as “more active than Entinostat”. Further, in assay [1], the “Response rate: CR (complete response)” value worked out at 20%, the “Response rate: NR (no response)” value was determined as 40% and the “Response rate: PR (partial response)” value worked out at 40%.
